# Reference: PubChem BioAssay (NCI)
#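 Values below derive from 48-hour exposures of cells grown in 96-well plates, with endpoints linearly interpolated between the two concentrations bracketing the appropriate inhibition level. At the TGI there is no net growth.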
# Assays:
# Assay in all cases: inhibition of tumour cell growth, NCI panel, 48 h
# 786-0 renal = system: 786-0 renal
# A498 renal = system: A498 renal
# A549 NSCLC = system: A549 NSCLC
# ACHN renal = system: ACHN renal
# BT-549 breast = system: BT-549 breast
# CAKI-1 renal = system: CAKI-1 renal
# CCRF-CEM leukemia = system: CCRF-CEM leukemia
# COLO 205 colon = system: COLO 205 colon
# DU-145 prostate = system: DU-145 prostate
# EKVX NSCLC = system: EKVX NSCLC
# HCC-2998 colon = system: HCC-2998 colon
# HCT-116 colon = system: HCT-116 colon
# HCT-15 colon = system: HCT-15 colon
# HL-60(TB) leukemia = system: HL-60(TB) leukemia
# HOP-62 NSCLC = system: HOP-62 NSCLC
# HS 578T breast = system: HS 578T breast
# HT29 colon = system: HT29 colon
# K-562 leukemia = system: K-562 leukemia
# KM12 colon = system: KM12 colon
# LOX IMVI melanoma = system: LOX IMVI melanoma
# M14 melanoma = system: M14 melanoma
# MALME-3M melanoma = system: MALME-3M melanoma
# MCF7 breast = system: MCF7 breast
# MDA-MB-231 breast = system: MDA-MB-231 breast
# MDA-MB-435 = system: MDA-MB-435
# MDA-N = system: MDA-N
# MOLT-4 leukemia = system: MOLT-4 leukemia
# NCI-H226 lung = system: NCI-H226 lung
# NCI-H23 lung = system: NCI-H23 lung
# NCI-H460 lung = system: NCI-H460 lung
# NCI-H522 lung = system: NCI-H522 lung
# OVCAR-3 ovarian = system: OVCAR-3 ovarian
# OVCAR-4 ovarian = system: OVCAR-4 ovarian
# OVCAR-5 ovarian = system: OVCAR-5 ovarian
# OVCAR-8 ovarian = system: OVCAR-8 ovarian
# PC-3 prostate = system: PC-3 prostate
# RPMI-8226 leukemia = system: RPMI-8226 leukemia
# SF-268 CNS = system: SF-268 CNS
# SF-295 CNS = system: SF-295 CNS
# SF-539 CNS = system: SF-539 CNS
# SK-MEL-2 melanoma = system: SK-MEL-2 melanoma
# SK-MEL-28 melanoma = system: SK-MEL-28 melanoma
# SK-MEL-5 melanoma = system: SK-MEL-5 melanoma
# SK-OV-3 ovarian = system: SK-OV-3 ovarian
# SN12C renal = system: SN12C renal
# SNB-19 CNS = system: SNB-19 CNS
# SNB-75 CNS = system: SNB-75 CNS
# SR leukemia = system: SR leukemia
# SW-620 colon = system: SW-620 colon
# T-47D breast = system: T-47D breast
# TK-10 renal = system: TK-10 renal
# U251 CNS = system: U251 CNS
# UACC-257 melanoma = system: UACC-257 melanoma
# UACC-62 melanoma = system: UACC-62 melanoma
# HOP-92 NSCLC = system: HOP-92 NSCLC
# IGROV1 ovarian = system: IGROV1 ovarian
# NCI/ADR-RES ovarian = system: NCI/ADR-RES ovarian
# RXF 393 renal = system: RXF 393 renal
compound,measurement,setting,value
Cc1cccc(C)c1NC(=O)/C=C/c1ccccc1,TGI,786-0 renal,> 100 µM
same,TGI,A498 renal,> 100 µM
same,TGI,A549 NSCLC,> 100 µM
same,TGI,ACHN renal,> 100 µM
same,TGI,BT-549 breast,> 100 µM
same,TGI,CAKI-1 renal,> 100 µM
same,TGI,CCRF-CEM leukemia,> 100 µM
same,TGI,COLO 205 colon,> 100 µM
same,TGI,DU-145 prostate,> 100 µM
same,TGI,EKVX NSCLC,> 100 µM
same,TGI,HCC-2998 colon,> 100 µM
same,TGI,HCT-116 colon,> 100 µM
same,TGI,HCT-15 colon,> 100 µM
same,TGI,HL-60(TB) leukemia,> 100 µM
same,TGI,HOP-62 NSCLC,> 100 µM
same,TGI,HS 578T breast,> 100 µM
same,TGI,HT29 colon,> 100 µM
same,TGI,K-562 leukemia,> 100 µM
same,TGI,KM12 colon,> 100 µM
same,TGI,LOX IMVI melanoma,> 100 µM
same,TGI,M14 melanoma,> 100 µM
same,TGI,MALME-3M melanoma,> 100 µM
same,TGI,MCF7 breast,> 100 µM
same,TGI,MDA-MB-231 breast,> 100 µM
same,TGI,MDA-MB-435,> 100 µM
same,TGI,MDA-N,> 100 µM
same,TGI,MOLT-4 leukemia,> 100 µM
same,TGI,NCI-H226 lung,> 100 µM
same,TGI,NCI-H23 lung,> 100 µM
same,TGI,NCI-H460 lung,> 100 µM
same,TGI,NCI-H522 lung,> 100 µM
same,TGI,OVCAR-3 ovarian,> 100 µM
same,TGI,OVCAR-4 ovarian,> 100 µM
same,TGI,OVCAR-5 ovarian,> 100 µM
same,TGI,OVCAR-8 ovarian,> 100 µM
same,TGI,PC-3 prostate,> 100 µM
same,TGI,RPMI-8226 leukemia,> 100 µM
same,TGI,SF-268 CNS,> 100 µM
same,TGI,SF-295 CNS,> 100 µM
same,TGI,SF-539 CNS,> 100 µM
same,TGI,SK-MEL-2 melanoma,> 100 µM
same,TGI,SK-MEL-28 melanoma,> 100 µM
same,TGI,SK-MEL-5 melanoma,> 100 µM
same,TGI,SK-OV-3 ovarian,> 100 µM
same,TGI,SN12C renal,> 100 µM
same,TGI,SNB-19 CNS,> 100 µM
same,TGI,SNB-75 CNS,> 100 µM
same,TGI,SR leukemia,> 100 µM
same,TGI,SW-620 colon,> 100 µM
same,TGI,T-47D breast,> 100 µM
same,TGI,TK-10 renal,> 100 µM
same,TGI,U251 CNS,> 100 µM
same,TGI,UACC-257 melanoma,> 100 µM
same,TGI,UACC-62 melanoma,> 100 µM
N=c1c2c(=S)n(-c3ccccc3)c(=S)n(-c3ccccc3)c2nc(SCCCN2CCCCC2)n1-c1ccccc1,TGI,786-0 renal,2.28 µM
same,TGI,A498 renal,7.11 µM
same,TGI,A549 NSCLC,3.78 µM
same,TGI,ACHN renal,3.08 µM
same,TGI,BT-549 breast,3.41 µM
same,TGI,CAKI-1 renal,3.15 µM
same,TGI,CCRF-CEM leukemia,1.41 µM
same,TGI,COLO 205 colon,3.19 µM
same,TGI,DU-145 prostate,3.03 µM
same,TGI,EKVX NSCLC,3.47 µM
same,TGI,HCC-2998 colon,2.82 µM
same,TGI,HCT-116 colon,3.1 µM
same,TGI,HCT-15 colon,3.23 µM
same,TGI,HL-60(TB) leukemia,3.81 µM
same,TGI,HOP-62 NSCLC,3.38 µM
same,TGI,HOP-92 NSCLC,3.28 µM
same,TGI,HS 578T breast,> 100 µM
same,TGI,HT29 colon,4.32 µM
same,TGI,IGROV1 ovarian,3.09 µM
same,TGI,KM12 colon,3.44 µM
same,TGI,M14 melanoma,3.1 µM
same,TGI,MALME-3M melanoma,3.31 µM
same,TGI,MCF7 breast,1.3 µM
same,TGI,MDA-MB-231 breast,3.05 µM
same,TGI,MDA-MB-435,3.14 µM
same,TGI,MDA-N,3.33 µM
same,TGI,NCI-H226 lung,6.84 µM
same,TGI,NCI-H23 lung,3.37 µM
same,TGI,NCI-H460 lung,4.3 µM
same,TGI,NCI-H522 lung,2.54 µM
same,TGI,NCI/ADR-RES ovarian,8.97 µM
same,TGI,OVCAR-3 ovarian,3.02 µM
same,TGI,OVCAR-4 ovarian,3.23 µM
same,TGI,OVCAR-5 ovarian,26.2 µM
same,TGI,OVCAR-8 ovarian,3.36 µM
same,TGI,PC-3 prostate,3.03 µM
same,TGI,RPMI-8226 leukemia,> 100 µM
same,TGI,RXF 393 renal,3.26 µM
same,TGI,SF-268 CNS,3.55 µM
same,TGI,SF-295 CNS,12.6 µM
same,TGI,SF-539 CNS,16.7 µM
same,TGI,SK-MEL-2 melanoma,3.77 µM
same,TGI,SK-MEL-28 melanoma,5.1 µM
same,TGI,SK-MEL-5 melanoma,3.63 µM
same,TGI,SK-OV-3 ovarian,5.34 µM
same,TGI,SN12C renal,3.28 µM
same,TGI,SNB-19 CNS,9.41 µM
same,TGI,SNB-75 CNS,3.28 µM
same,TGI,SW-620 colon,5.15 µM
same,TGI,T-47D breast,5.78 µM
same,TGI,TK-10 renal,3.08 µM
same,TGI,U251 CNS,3.12 µM
same,TGI,UACC-257 melanoma,3.31 µM
same,TGI,UACC-62 melanoma,3.03 µM
